In PubChem BioAssay AID1963853 (Molecular Pharmacology Branch, DTP, NCI, 2024):
pIC50: −log10 of the molar value.

Tested on: 266295-075-R-J1-PDC spheroid viability
Assay: Anticancer human tumor 266295-075-R-J1-PDC patient-derived head and neck squamous carcinoma cell line growth inhibition [POLQ]
Details: spheroids with HUVEC and MSC; for pIC50: curve of first compound; for viability, T/C: stronger effect = lower value
How it was run: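 Patient-derived tumour cells were co-cultured with HUVEC and mesenchymal stem cells as multicellular spheroids at 37 °C. They were treated with POLQ inhibitors (novobiocin, ART-558, RP6685) alone or combined with other agents. Top concentrations were at or near clinical Cmax (otherwise 10 microM; SN-38 at 1 microM), decreasing in half-log steps.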

[1] = second compound 0.0316 µM, first compound 0.0316 µM
[2] = second compound 0.0316 µM, first compound 0.1 µM
[3] = second compound 0.0316 µM, first compound 0.316 µM
[4] = second compound 0.0316 µM, first compound 1 µM
[5] = second compound 0.1 µM, first compound 0.0316 µM
[6] = second compound 0.1 µM, first compound 0.1 µM
[7] = second compound 0.1 µM, first compound 0.316 µM
[8] = second compound 0.1 µM, first compound 1 µM
[9] = second compound 0.316 µM, first compound 0.0316 µM
[10] = second compound 0.316 µM, first compound 0.1 µM
[11] = second compound 0.316 µM, first compound 0.316 µM
[12] = second compound 0.316 µM, first compound 1 µM
[13] = second compound 1 µM, first compound 0.0316 µM
[14] = second compound 1 µM, first compound 0.1 µM
[15] = second compound 1 µM, first compound 0.316 µM
[16] = second compound 1 µM, first compound 1 µM
[17] = second compound 3.16 µM, first compound 0.0316 µM
[18] = second compound 3.16 µM, first compound 0.1 µM
[19] = second compound 3.16 µM, first compound 0.316 µM
[20] = second compound 3.16 µM, first compound 1 µM
[21] = second compound 10 µM, first compound 0.0316 µM
[22] = second compound 10 µM, first compound 0.1 µM
[23] = second compound 10 µM, first compound 0.316 µM
[24] = second compound 10 µM, first compound 1 µM
[25] = second compound 0.0316 µM, first compound 3.16 µM
[26] = second compound 0.0316 µM, first compound 10 µM
[27] = second compound 0.1 µM, first compound 3.16 µM
[28] = second compound 0.1 µM, first compound 10 µM
[29] = second compound 0.316 µM, first compound 3.16 µM
[30] = second compound 0.316 µM, first compound 10 µM
[31] = second compound 1 µM, first compound 3.16 µM
[32] = second compound 1 µM, first compound 10 µM
[33] = second compound 3.16 µM, first compound 3.16 µM
[34] = second compound 3.16 µM, first compound 10 µM
[35] = second compound 10 µM, first compound 3.16 µM
[36] = second compound 10 µM, first compound 10 µM
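Further: spheroids exposed to compounds for seven days before readout.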

CCc1c2c(nc3ccc(O)cc13)-c1cc3c(c(=O)n1C2)COC(=O)[C@]3(O)CC + Nc1ccc(C#CCN(C(=O)Cc2ncc(C(F)(F)F)cc2C(F)(F)F)c2ccc(F)cc2)nn1
pIC50 (second compound 0.0316 µM): < 6.00 | pIC50 (second compound 0.1 µM): < 6.00 | pIC50 (second compound 0.316 µM): < 6.00 | pIC50 (second compound 1 µM): < 6.00 | pIC50 (second compound 3.16 µM): < 6.00 | pIC50 (second compound 10 µM): < 6.00 | viability, T/C (second compound 0.0316 µM, first compound 0.00316 µM): 86.6% | viability, T/C (second compound 0.0316 µM, first compound 0.01 µM): 96% | viability, T/C [1]: 84.6% | viability, T/C [2]: 97.7% | viability, T/C [3]: 106% | viability, T/C [4]: 81% | viability, T/C (second compound 0.1 µM, first compound 0.00316 µM): 103% | viability, T/C (second compound 0.1 µM, first compound 0.01 µM): 80.7% | viability, T/C [5]: 76.9% | viability, T/C [6]: 102% | viability, T/C [7]: 96.2% | viability, T/C [8]: 75.4% | viability, T/C (second compound 0.316 µM, first compound 0.00316 µM): 98.6% | viability, T/C (second compound 0.316 µM, first compound 0.01 µM): 83.1% | viability, T/C [9]: 80.2% | viability, T/C [10]: 101% | viability, T/C [11]: 117% | viability, T/C [12]: 73.5% | viability, T/C (second compound 1 µM, first compound 0.00316 µM): 106% | viability, T/C (second compound 1 µM, first compound 0.01 µM): 82.7% | viability, T/C [13]: 81.9% | viability, T/C [14]: 85.8% | viability, T/C [15]: 101% | viability, T/C [16]: 63.4% | viability, T/C (second compound 3.16 µM, first compound 0.00316 µM): 108% | viability, T/C (second compound 3.16 µM, first compound 0.01 µM): 96.8% | viability, T/C [17]: 96.1% | viability, T/C [18]: 109% | viability, T/C [19]: 99.5% | viability, T/C [20]: 65% | viability, T/C (second compound 10 µM, first compound 0.00316 µM): 100% | viability, T/C (second compound 10 µM, first compound 0.01 µM): 97.1% | viability, T/C [21]: 83.2% | viability, T/C [22]: 81.5% | viability, T/C [23]: 117% | viability, T/C [24]: 70.4%

CC1COCCN1c1cc(C2(O)CC3CCC(C2)O3)c2cnn(-c3ccn[nH]3)c2n1 (stereo not drawn) + Nc1ccc(C#CCN(C(=O)Cc2ncc(C(F)(F)F)cc2C(F)(F)F)c2ccc(F)cc2)nn1
pIC50 (second compound 0.0316 µM): 6.00 | pIC50 (second compound 0.1 µM): 6.23 | pIC50 (second compound 0.316 µM): 6.49 | pIC50 (second compound 1 µM): 6.04 | pIC50 (second compound 3.16 µM): 6.08 | pIC50 (second compound 10 µM): 6.15 | viability, T/C [1]: 80.4% | viability, T/C [2]: 112% | viability, T/C [3]: 67.6% | viability, T/C [4]: 54.4% | viability, T/C [25]: 42.5% | viability, T/C [26]: 32.3% | viability, T/C [5]: 96.9% | viability, T/C [6]: 85.9% | viability, T/C [7]: 53.5% | viability, T/C [8]: 46.6% | viability, T/C [27]: 39.2% | viability, T/C [28]: 29.9% | viability, T/C [9]: 94.9% | viability, T/C [10]: 100% | viability, T/C [11]: 50.2% | viability, T/C [12]: 51.2% | viability, T/C [29]: 38.3% | viability, T/C [30]: 26.9% | viability, T/C [13]: 86.2% | viability, T/C [14]: 66.3% | viability, T/C [15]: 63.1% | viability, T/C [16]: 46.9% | viability, T/C [31]: 42.5% | viability, T/C [32]: 25.7% | viability, T/C [17]: 83.9% | viability, T/C [18]: 84.1% | viability, T/C [19]: 63.7% | viability, T/C [20]: 46.8% | viability, T/C [33]: 36.8% | viability, T/C [34]: 27.8% | viability, T/C [21]: 78.4% | viability, T/C [22]: 75.7% | viability, T/C [23]: 69.8% | viability, T/C [24]: 41.2% | viability, T/C [35]: 30.2% | viability, T/C [36]: 26.7%

CC1COCCN1c1cc(C2(S(C)(=N)=O)CC2)nc(-c2ccnc3[nH]ccc23)n1 (stereo not drawn) + Nc1ccc(C#CCN(C(=O)Cc2ncc(C(F)(F)F)cc2C(F)(F)F)c2ccc(F)cc2)nn1
pIC50 (second compound 0.0316 µM): < 5.00 | pIC50 (second compound 0.1 µM): < 5.00 | pIC50 (second compound 0.316 µM): 5.07 | pIC50 (second compound 1 µM): 5.03 | pIC50 (second compound 3.16 µM): < 5.00 | pIC50 (second compound 10 µM): < 5.00 | viability, T/C [1]: 110% | viability, T/C [2]: 93.3% | viability, T/C [3]: 83.4% | viability, T/C [4]: 75.5% | viability, T/C [25]: 67.5% | viability, T/C [26]: 63% | viability, T/C [5]: 102% | viability, T/C [6]: 116% | viability, T/C [7]: 92% | viability, T/C [8]: 93.9% | viability, T/C [27]: 80.2% | viability, T/C [28]: 57.2% | viability, T/C [9]: 81.9% | viability, T/C [10]: 102% | viability, T/C [11]: 92.5% | viability, T/C [12]: 79% | viability, T/C [29]: 78.4% | viability, T/C [30]: 45.6% | viability, T/C [13]: 97.8% | viability, T/C [14]: 109% | viability, T/C [15]: 96.6% | viability, T/C [16]: 87.6% | viability, T/C [31]: 67.6% | viability, T/C [32]: 48.9% | viability, T/C [17]: 89.9% | viability, T/C [18]: 141% | viability, T/C [19]: 100% | viability, T/C [20]: 92.8% | viability, T/C [33]: 69.4% | viability, T/C [34]: 57.3% | viability, T/C [21]: 95.4% | viability, T/C [22]: 99% | viability, T/C [23]: 95.5% | viability, T/C [24]: 92.7% | viability, T/C [35]: 70.6% | viability, T/C [36]: 62.9%

Nc1ccn(C2OC(CO)C(O)C2(F)F)c(=O)n1 (stereo not drawn) + Nc1ccc(C#CCN(C(=O)Cc2ncc(C(F)(F)F)cc2C(F)(F)F)c2ccc(F)cc2)nn1
pIC50 (second compound 0.0316 µM): < 5.00 | pIC50 (second compound 0.1 µM): < 5.00 | pIC50 (second compound 0.316 µM): < 5.00 | pIC50 (second compound 1 µM): < 5.00 | pIC50 (second compound 3.16 µM): < 5.00 | pIC50 (second compound 10 µM): < 5.00 | viability, T/C [1]: 100% | viability, T/C [2]: 106% | viability, T/C [3]: 81.6% | viability, T/C [4]: 77% | viability, T/C [25]: 93.7% | viability, T/C [26]: 85.3% | viability, T/C [5]: 112% | viability, T/C [6]: 98.8% | viability, T/C [7]: 72.6% | viability, T/C [8]: 96.5% | viability, T/C [27]: 92.1% | viability, T/C [28]: 80.4% | viability, T/C [9]: 105% | viability, T/C [10]: 88% | viability, T/C [11]: 78.5% | viability, T/C [12]: 94.8% | viability, T/C [29]: 95.7% | viability, T/C [30]: 82% | viability, T/C [13]: 105% | viability, T/C [14]: 82.9% | viability, T/C [15]: 92% | viability, T/C [16]: 101% | viability, T/C [31]: 94.3% | viability, T/C [32]: 82.5% | viability, T/C [17]: 124% | viability, T/C [18]: 94.2% | viability, T/C [19]: 90.5% | viability, T/C [20]: 95.1% | viability, T/C [33]: 83.7% | viability, T/C [34]: 75.7% | viability, T/C [21]: 93.2% | viability, T/C [22]: 101% | viability, T/C [23]: 82.8% | viability, T/C [24]: 89.7% | viability, T/C [35]: 75.5% | viability, T/C [36]: 72.2%
